Source: publication PMC12102759 (Protein Science : A Publication of the Protein Society, 2025)

test system: G3BP1 NFT2; type: binding, human; conditions: library DMS-CoV; bait G3BP1 NFT2; prey N; peptide APRITFGGPSDSTGSN; listed as aa = residue placed at this position; column sums to 1

Sequence	DMS PSSM value, G (position 8)	DMS PSSM value, T (position 13)	DMS PSSM value, T (position 5)	DMS PSSM value, A (position 1)	DMS PSSM value, P (position 9)	DMS PSSM value, P (position 2)	DMS PSSM value, S (position 15)	DMS PSSM value, D (position 11)	DMS PSSM value, R (position 3)	DMS PSSM value, G (position 7)
APRITFGGPSDSTGSN G8N (APRITFGNPSDSTGSN)	0									
APRITFGGPSDSTGSN T13A (APRITFGGPSDSAGSN)		0.02642								
APRITFGGPSDSTGSN T5N (APRINFGGPSDSTGSN)			0							
APRITFGGPSDSTGSN A1Y (YPRITFGGPSDSTGSN)				0.04618						
APRITFGGPSDSTGSN G8A (APRITFGAPSDSTGSN)	0.9067									
APRITFGGPSDSTGSN P9A (APRITFGGASDSTGSN)					0.001999					
APRITFGGPSDSTGSN P9F (APRITFGGFSDSTGSN)					0.2349					
APRITFGGPSDSTGSN P2M (AMRITFGGPSDSTGSN)						0				
APRITFGGPSDSTGSN P9I (APRITFGGISDSTGSN)					0.01105					
APRITFGGPSDSTGSN S15Y (APRITFGGPSDSTGYN)							0.1419			
APRITFGGPSDSTGSN D11H (APRITFGGPSHSTGSN)								0.001494		
APRITFGGPSDSTGSN D11V (APRITFGGPSVSTGSN)								0.02861		
APRITFGGPSDSTGSN R3T (APTITFGGPSDSTGSN)									0.001362	
APRITFGGPSDSTGSN G7V (APRITFVGPSDSTGSN)										0
APRITFGGPSDSTGSN P2K (AKRITFGGPSDSTGSN)						0				
APRITFGGPSDSTGSN S15D (APRITFGGPSDSTGDN)							0.002282			
APRITFGGPSDSTGSN D11I (APRITFGGPSISTGSN)								0.002718		
APRITFGGPSDSTGSN P2G (AGRITFGGPSDSTGSN)						0				
APRITFGGPSDSTGSN A1F (FPRITFGGPSDSTGSN)				0.0004523						
APRITFGGPSDSTGSN T13N (APRITFGGPSDSNGSN)		0.01901								
APRITFGGPSDSTGSN R3G (APGITFGGPSDSTGSN)									0.02417	
APRITFGGPSDSTGSN P9K (APRITFGGKSDSTGSN)					0					

Sequence	DMS PSSM value, G (position 8)	DMS PSSM value, T (position 13)	DMS PSSM value, T (position 5)	DMS PSSM value, A (position 1)	DMS PSSM value, P (position 9)	DMS PSSM value, P (position 2)	DMS PSSM value, S (position 15)	DMS PSSM value, D (position 11)	DMS PSSM value, R (position 3)	DMS PSSM value, G (position 7)
APRITFGGPSDSTGSN P9N (APRITFGGNSDSTGSN)					0					
APRITFGGPSDSTGSN T5H (APRIHFGGPSDSTGSN)			0							
APRITFGGPSDSTGSN P9V (APRITFGGVSDSTGSN)					0.001999					
APRITFGGPSDSTGSN P9T (APRITFGGTSDSTGSN)					0.01557					
APRITFGGPSDSTGSN P9L (APRITFGGLSDSTGSN)					0					
APRITFGGPSDSTGSN D11S (APRITFGGPSSSTGSN)								0.01892		
APRITFGGPSDSTGSN P2T (ATRITFGGPSDSTGSN)						0				
APRITFGGPSDSTGSN T13S (APRITFGGPSDSSGSN)		9.878e-5								
APRITFGGPSDSTGSN G8I (APRITFGIPSDSTGSN)	0									
APRITFGGPSDSTGSN T5D (APRIDFGGPSDSTGSN)			0							
APRITFGGPSDSTGSN P9Y (APRITFGGYSDSTGSN)					0.04934					
APRITFGGPSDSTGSN T5Q (APRIQFGGPSDSTGSN)			0							
APRITFGGPSDSTGSN A1L (LPRITFGGPSDSTGSN)				0.0004523						
APRITFGGPSDSTGSN G7A (APRITFAGPSDSTGSN)										0
APRITFGGPSDSTGSN G8R (APRITFGRPSDSTGSN)	0									
APRITFGGPSDSTGSN S15R (APRITFGGPSDSTGRN)							0			
APRITFGGPSDSTGSN R3D (APDITFGGPSDSTGSN)									9.037e-5	
APRITFGGPSDSTGSN T5M (APRIMFGGPSDSTGSN)			0							
APRITFGGPSDSTGSN A1P (PPRITFGGPSDSTGSN)				0.006009						
APRITFGGPSDSTGSN T13P (APRITFGGPSDSPGSN)		0.005019								
APRITFGGPSDSTGSN R3E (APEITFGGPSDSTGSN)									0.01584	
APRITFGGPSDSTGSN P2A (AARITFGGPSDSTGSN)						0.004798				

same assay, conditions: library DMS-CoV; bait G3BP1 NFT2; prey N; peptide APRITFGGPSDSTGSN; listed as aa = residue placed at this position; column sums to 1

Sequence	DMS PSSM value, S (position 10)	DMS PSSM value, F (position 6)	DMS PSSM value, S (position 12)	DMS PSSM value, G (position 14)	DMS PSSM value, I (position 4)
APRITFGGPSDSTGSN S10D (APRITFGGPDDSTGSN)	0				
APRITFGGPSDSTGSN F6V (APRITVGGPSDSTGSN)		0			
APRITFGGPSDSTGSN S12L (APRITFGGPSDLTGSN)			0.001118		
APRITFGGPSDSTGSN G14N (APRITFGGPSDSTNSN)				0.000305	
APRITFGGPSDSTGSN S10K (APRITFGGPKDSTGSN)	0.006118				
APRITFGGPSDSTGSN S12V (APRITFGGPSDVTGSN)			0.04482		
APRITFGGPSDSTGSN I4E (APRETFGGPSDSTGSN)					0
APRITFGGPSDSTGSN F6E (APRITEGGPSDSTGSN)		0			
APRITFGGPSDSTGSN I4K (APRKTFGGPSDSTGSN)					0
APRITFGGPSDSTGSN I4L (APRLTFGGPSDSTGSN)					0

same assay, conditions: library DMS-CoV; bait G3BP1 NFT2; prey N; peptide RNAPRITFGGPSDSTG; listed as aa = residue placed at this position; column sums to 1

Sequence	DMS PSSM value, F (position 8)	DMS PSSM value, S (position 14)	DMS PSSM value, N (position 2)	DMS PSSM value, G (position 9)	DMS PSSM value, G (position 16)	DMS PSSM value, A (position 3)	DMS PSSM value, I (position 6)	DMS PSSM value, S (position 12)	DMS PSSM value, G (position 10)	DMS PSSM value, D (position 13)
RNAPRITFGGPSDSTG F8T (RNAPRITTGGPSDSTG)	0									
RNAPRITFGGPSDSTG F8Q (RNAPRITQGGPSDSTG)	0									
RNAPRITFGGPSDSTG S14E (RNAPRITFGGPSDETG)		0								
RNAPRITFGGPSDSTG N2M (RMAPRITFGGPSDSTG)			0							
RNAPRITFGGPSDSTG G9P (RNAPRITFPGPSDSTG)				0						
RNAPRITFGGPSDSTG F8M (RNAPRITMGGPSDSTG)	0									
RNAPRITFGGPSDSTG G16I (RNAPRITFGGPSDSTI)					0					
RNAPRITFGGPSDSTG A3M (RNMPRITFGGPSDSTG)						0				
RNAPRITFGGPSDSTG I6H (RNAPRHTFGGPSDSTG)							0			
RNAPRITFGGPSDSTG S12R (RNAPRITFGGPRDSTG)								0		
RNAPRITFGGPSDSTG G10V (RNAPRITFGVPSDSTG)									0	
RNAPRITFGGPSDSTG S14H (RNAPRITFGGPSDHTG)		0								
RNAPRITFGGPSDSTG G9Q (RNAPRITFQGPSDSTG)				0						
RNAPRITFGGPSDSTG A3S (RNSPRITFGGPSDSTG)						0				
RNAPRITFGGPSDSTG	1	0	0	0	0	0	0	0	0	0
RNAPRITFGGPSDSTG G10F (RNAPRITFGFPSDSTG)									0	

Sequence	DMS PSSM value, F (position 8)	DMS PSSM value, S (position 14)	DMS PSSM value, N (position 2)	DMS PSSM value, G (position 9)	DMS PSSM value, G (position 16)	DMS PSSM value, A (position 3)	DMS PSSM value, I (position 6)	DMS PSSM value, S (position 12)	DMS PSSM value, G (position 10)	DMS PSSM value, D (position 13)
RNAPRITFGGPSDSTG I6Q (RNAPRQTFGGPSDSTG)							0			
RNAPRITFGGPSDSTG S12D (RNAPRITFGGPDDSTG)								0		
RNAPRITFGGPSDSTG A3H (RNHPRITFGGPSDSTG)						0				
RNAPRITFGGPSDSTG G9S (RNAPRITFSGPSDSTG)				0						
RNAPRITFGGPSDSTG N2V (RVAPRITFGGPSDSTG)			0							
RNAPRITFGGPSDSTG N2F (RFAPRITFGGPSDSTG)			0							
RNAPRITFGGPSDSTG A3W (RNWPRITFGGPSDSTG)						0				
RNAPRITFGGPSDSTG G10W (RNAPRITFGWPSDSTG)									0	
RNAPRITFGGPSDSTG D13Y (RNAPRITFGGPSYSTG)										0
RNAPRITFGGPSDSTG A3P (RNPPRITFGGPSDSTG)						0				
RNAPRITFGGPSDSTG G10L (RNAPRITFGLPSDSTG)									0	
RNAPRITFGGPSDSTG S14Y (RNAPRITFGGPSDYTG)		0								
RNAPRITFGGPSDSTG G10M (RNAPRITFGMPSDSTG)									0	
RNAPRITFGGPSDSTG I6W (RNAPRWTFGGPSDSTG)							0			
RNAPRITFGGPSDSTG S12Y (RNAPRITFGGPYDSTG)								0		
RNAPRITFGGPSDSTG G9D (RNAPRITFDGPSDSTG)				1						

same assay, conditions: library DMS-CoV; bait G3BP1 NFT2; prey N; peptide RNAPRITFGGPSDSTG; listed as aa = residue placed at this position; column sums to 1

Sequence	DMS PSSM value, P (position 4)	DMS PSSM value, P (position 11)	DMS PSSM value, R (position 5)	DMS PSSM value, T (position 7)	DMS PSSM value, T (position 15)
RNAPRITFGGPSDSTG	0	1	0	0	0
RNAPRITFGGPSDSTG T7A (RNAPRIAFGGPSDSTG)				0	
RNAPRITFGGPSDSTG T7N (RNAPRINFGGPSDSTG)				0	
RNAPRITFGGPSDSTG T15R (RNAPRITFGGPSDSRG)					0
RNAPRITFGGPSDSTG R5P (RNAPPITFGGPSDSTG)			0.5972		
RNAPRITFGGPSDSTG T7S (RNAPRISFGGPSDSTG)				0	
RNAPRITFGGPSDSTG T7F (RNAPRIFFGGPSDSTG)				0	
RNAPRITFGGPSDSTG P4I (RNAIRITFGGPSDSTG)	0				
RNAPRITFGGPSDSTG R5T (RNAPTITFGGPSDSTG)			0.001368		
RNAPRITFGGPSDSTG T7L (RNAPRILFGGPSDSTG)				0	
RNAPRITFGGPSDSTG T15F (RNAPRITFGGPSDSFG)					0
RNAPRITFGGPSDSTG T7I (RNAPRIIFGGPSDSTG)				0	
RNAPRITFGGPSDSTG T7Q (RNAPRIQFGGPSDSTG)				0	
